Measured values taken from PubChem BioAssay AID2060618 (Molecular Pharmacology Branch, DTP, NCI, 2025).
Several values for one entry are separate records, joined by “and”; a condition that tells them apart may be missing. Identical values can stand only once.

Test system: 454973-116-R2-J3-PDC spheroids, percent test/control viability
Test: Anticancer human tumor 454973-116-R2-J3-PDC patient-derived pancreatic carcinoma cell line growth inhibition [CLK]
Settings: spheroids with HUVEC and MSC; for viability, T/C: stronger effect = lower value
In short: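 Patient-derived tumor cells grown as complex spheroids with HUVEC endothelial cells and mesenchymal stem cells, treated with drug combinations. Concentrations descend in half-log steps from near clinical Cmax, or from 10 microM if Cmax unknown.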

[1] = curve of first compound, second compound 0.0316 µM
[2] = curve of first compound, second compound 0.1 µM
[3] = curve of first compound, second compound 0.316 µM
[4] = curve of first compound, second compound 1 µM
[5] = curve of first compound, second compound 3.16 µM
[6] = curve of first compound, second compound 10 µM
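Note: spheroids exposed to compounds for 7 days before readout.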

CCCS(=O)(=O)Nc1ccc(F)c(C(=O)c2c[nH]c3ncc(-c4ccc(Cl)cc4)cc23)c1F
viability, T/C (compound 0.0316 µM): 99.6% and 110% | viability, T/C (compound 0.1 µM): 103% and 101% | viability, T/C (compound 0.316 µM): 112% and 105% | viability, T/C (compound 1 µM): 102% and 103% | viability, T/C (compound 3.16 µM): 108% and 101% | viability, T/C (compound 10 µM): 39.4% and 25.2% | IC50 (curve of compound): 8300 nM and 6870 nM

COc1cccc2c1C(=O)c1c(O)c3c(c(O)c1C2=O)CC(O)(C(=O)CO)CC3OC1CC(N)C(O)C(C)O1 (stereo unspecified) + CNC(=O)c1ccc(Nc2nc(OC3CCCC3)c3c(-c4ccc5nc(C)oc5c4)c[nH]c3n2)c(OC)c1
IC50 [1]: 31.6 nM | IC50 [2]: < 31.6 nM | IC50 [3]: < 31.6 nM | IC50 [4]: < 31.6 nM | IC50 [5]: < 31.6 nM | IC50 [6]: < 31.6 nM | viability, T/C (second compound 0.0316 µM, first compound 0.0316 µM): 51.4% | viability, T/C (second compound 0.0316 µM, first compound 0.1 µM): 23% | viability, T/C (second compound 0.0316 µM, first compound 0.316 µM): 21.7% | viability, T/C (second compound 0.0316 µM, first compound 1 µM): 6.66% | viability, T/C (second compound 0.0316 µM, first compound 3.16 µM): 1.89% | viability, T/C (second compound 0.0316 µM, first compound 10 µM): 1.95% | viability, T/C (second compound 0.1 µM, first compound 0.0316 µM): 46.4% | viability, T/C (second compound 0.1 µM, first compound 0.1 µM): 26.4% | viability, T/C (second compound 0.1 µM, first compound 0.316 µM): 19.6% | viability, T/C (second compound 0.1 µM, first compound 1 µM): 4.09% | viability, T/C (second compound 0.1 µM, first compound 3.16 µM): 2.62% | viability, T/C (second compound 0.1 µM, first compound 10 µM): 1.16% | viability, T/C (second compound 0.316 µM, first compound 0.0316 µM): 27.8% | viability, T/C (second compound 0.316 µM, first compound 0.1 µM): 25% | viability, T/C (second compound 0.316 µM, first compound 0.316 µM): 14.5% | viability, T/C (second compound 0.316 µM, first compound 1 µM): 4.53% | viability, T/C (second compound 0.316 µM, first compound 3.16 µM): 2.76% | viability, T/C (second compound 0.316 µM, first compound 10 µM): 1.6% | viability, T/C (second compound 1 µM, first compound 0.0316 µM): 25.2% | viability, T/C (second compound 1 µM, first compound 0.1 µM): 18.5% | viability, T/C (second compound 1 µM, first compound 0.316 µM): 9.38% | viability, T/C (second compound 1 µM, first compound 1 µM): 1.17% | viability, T/C (second compound 1 µM, first compound 3.16 µM): 0.61% | viability, T/C (second compound 1 µM, first compound 10 µM): 0.81% | viability, T/C (second compound 3.16 µM, first compound 0.0316 µM): 26.2% | viability, T/C (second compound 3.16 µM, first compound 0.1 µM): 17.2% | viability, T/C (second compound 3.16 µM, first compound 0.316 µM): 4.87% | viability, T/C (second compound 3.16 µM, first compound 1 µM): 0.94% | viability, T/C (second compound 3.16 µM, first compound 3.16 µM): 1.27% | viability, T/C (second compound 3.16 µM, first compound 10 µM): 0.57% | viability, T/C (second compound 10 µM, first compound 0.0316 µM): 25.1% | viability, T/C (second compound 10 µM, first compound 0.1 µM): 20.3% | viability, T/C (second compound 10 µM, first compound 0.316 µM): 3.72% | viability, T/C (second compound 10 µM, first compound 1 µM): 0.69% | viability, T/C (second compound 10 µM, first compound 3.16 µM): 1.84% | viability, T/C (second compound 10 µM, first compound 10 µM): 0.97%

NC(=O)C(=Cn1cnc(-c2cc(C(F)(F)F)cc(C(F)(F)F)c2)n1)c1cncnc1 + CNC(=O)c1ccc(Nc2nc(OC3CCCC3)c3c(-c4ccc5nc(C)oc5c4)c[nH]c3n2)c(OC)c1
IC50 [1]: 330 nM | IC50 [2]: 411 nM | IC50 [3]: 61.9 nM | IC50 [4]: < 9.49 nM | IC50 [5]: < 9.49 nM | IC50 [6]: < 9.49 nM | viability, T/C (second compound 0.0316 µM, first compound 0.00949 µM): 115% | viability, T/C (second compound 0.0316 µM, first compound 0.03 µM): 92.4% | viability, T/C (second compound 0.0316 µM, first compound 0.0949 µM): 66.3% | viability, T/C (second compound 0.0316 µM, first compound 0.3 µM): 55% | viability, T/C (second compound 0.0316 µM, first compound 0.949 µM): 35.7% | viability, T/C (second compound 0.0316 µM, first compound 3 µM): 8.15% | viability, T/C (second compound 0.1 µM, first compound 0.00949 µM): 105% | viability, T/C (second compound 0.1 µM, first compound 0.03 µM): 96.4% | viability, T/C (second compound 0.1 µM, first compound 0.0949 µM): 71% | viability, T/C (second compound 0.1 µM, first compound 0.3 µM): 55.3% | viability, T/C (second compound 0.1 µM, first compound 0.949 µM): 37.2% | viability, T/C (second compound 0.1 µM, first compound 3 µM): 11.1% | viability, T/C (second compound 0.316 µM, first compound 0.00949 µM): 54.1% | viability, T/C (second compound 0.316 µM, first compound 0.03 µM): 55.3% | viability, T/C (second compound 0.316 µM, first compound 0.0949 µM): 47.9% | viability, T/C (second compound 0.316 µM, first compound 0.3 µM): 38.1% | viability, T/C (second compound 0.316 µM, first compound 0.949 µM): 28.3% | viability, T/C (second compound 0.316 µM, first compound 3 µM): 4.69% | viability, T/C (second compound 1 µM, first compound 0.00949 µM): 35.7% | viability, T/C (second compound 1 µM, first compound 0.03 µM): 31.3% | viability, T/C (second compound 1 µM, first compound 0.0949 µM): 28.1% | viability, T/C (second compound 1 µM, first compound 0.3 µM): 18.8% | viability, T/C (second compound 1 µM, first compound 0.949 µM): 12.8% | viability, T/C (second compound 1 µM, first compound 3 µM): 1% | viability, T/C (second compound 3.16 µM, first compound 0.00949 µM): 31.4% | viability, T/C (second compound 3.16 µM, first compound 0.03 µM): 30.6% | viability, T/C (second compound 3.16 µM, first compound 0.0949 µM): 26.1% | viability, T/C (second compound 3.16 µM, first compound 0.3 µM): 19.3% | viability, T/C (second compound 3.16 µM, first compound 0.949 µM): 5.51% | viability, T/C (second compound 3.16 µM, first compound 3 µM): 0.93% | viability, T/C (second compound 10 µM, first compound 0.00949 µM): 32.6% | viability, T/C (second compound 10 µM, first compound 0.03 µM): 25.8% | viability, T/C (second compound 10 µM, first compound 0.0949 µM): 22.5% | viability, T/C (second compound 10 µM, first compound 0.3 µM): 19.9% | viability, T/C (second compound 10 µM, first compound 0.949 µM): 4.71% | viability, T/C (second compound 10 µM, first compound 3 µM): 0.78%
